According to article PMC11284787, “Ligand-Directed Labeling of the Adenosine A1 Receptor in Living Cells” (Journal of Medicinal Chemistry, 2024):

Assays:
NL-hA3AR [1] = target: T1, NL-hA3AR (Homo sapiens, UniProt P0DMS8); test: NanoBRET saturation ligand-binding assay, NL-hA3AR
T1 construct: expressed in transfected cells
T1 sequence (P0DMS8 1-318): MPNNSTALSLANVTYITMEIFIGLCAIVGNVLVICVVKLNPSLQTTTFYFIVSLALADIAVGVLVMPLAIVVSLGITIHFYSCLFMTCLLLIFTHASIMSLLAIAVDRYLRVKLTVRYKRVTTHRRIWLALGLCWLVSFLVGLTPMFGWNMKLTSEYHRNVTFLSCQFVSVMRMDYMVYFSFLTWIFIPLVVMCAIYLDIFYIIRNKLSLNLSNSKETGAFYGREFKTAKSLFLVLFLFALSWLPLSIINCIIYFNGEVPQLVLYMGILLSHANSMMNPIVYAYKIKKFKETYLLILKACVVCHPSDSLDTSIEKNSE
Protocol: Probes 11 and 12 were further evaluated for their ability to bind the other three adenosine receptor subtypes (NL-A2AAR, NL-A2BAR, and NL-A3AR), and their ligand-binding properties were quantified in the NanoBRET saturation and inhibition binding assays, respectively (Table 1 and Figure 4).
NanoBRET binding assay. All NanoBRET experiments were performed in white flat […]
37 °C for kinetic binding experiments. Emissions were read at 420 nm (80 nm bandpass; […]
the SulfoCy5-labelled probe. […]
nm emission by the 420 nm emission. The term “raw BRET ratio” refers to the unprocessed data as no background ratio has been subtracted. In all NanoBRET binding […]
competitive antagonist selective for the adenosine receptor under investigation […]
MRS1220 for the A3AR). HEK293T cells stably/transiently expressing Nluc-AR were […]
were incubated for 1 h at 37 °C. […]
NanoBRET saturation binding assay. Total and nonspecific saturation binding curves were fit simultaneously using the following equation:
BRET ratio = Bmax[B] + M(B) + C […]
Uninhibited specific binding = 100 ― 100 x [A]

[2] = Fluorescence correlation spectroscopy in solution (HBSS); format: physicochemical
Protocol: The suitability of probe 11 for use with FCS was initially tested by recording 10 × 10 s trace reads in solution (100 nM in HBSS) (Figure S4). […] A 488 nm […] laser was used to excite SNAP-AF488 and the emission […] The pinhole diameter (1 Airy Unit; 1.1 μm optical slice), laser power and gain was kept constant in all the experiments. Images were acquired as 16-bit depth, 1024x1024 pixel resolution with a line averaging of 8 (or 2) and a pixel dwell time 4.12 µs (set to 5). Images were either processed in Zeiss ZEN 2 (blue edition) or FIJI (ImageJ) version 2.0.0 software, and linear adjustments to the brightness and contrast have been applied equally across all the images. To obtain membrane intensity values, regions of interest were drawn by hand around regions of cell membranes in FIJI (ImageJ)10 version 2.0.0 software. Fluorescence Correlation Spectroscopy. […] After that time, cells were washed 3x with warm HBSS over the course of 20 min, followed by the addition of 300 µL HBSS, left to cool to 24 OC and used in Fluorescence Correlation Spectroscopy (FCS) studies. […] For solution-based reads 10 x 10s trace measurements were taken within 200 µL sample with the confocal observation volume placed 200 µm above the coverslip. For apical membrane reads, 3 x 30s trace measurements at ~0.5 kW/cm2 laser power were taken on the apical membrane with its position determined as the peak of a point intensity S9 page 10: Z-scan utilising an argon 488 nm laser excitation, at ~0.5kW/cm2 laser power, detecting […] The placement was lowered by 0.2 µm to account for the optical chromatic offset between the 488 nm and 633 nm detection previously determined for our microscope set-up. Autocorrelation curves (AC) were constructed from fluorescence fluctuation traces and analysed within Zen Black (2012) software. […] Fluorescence fluctuation traces were reanalysed with Photon Counting Histogram analysis to determine the average molecular brightness of detected species. […]

NL-hA3AR [3] = target: T1, NL-hA3AR; test: cell-based; format: binding; details: CA200645 (25 nM) tracer, HEK293T cells, mean ± SEM; read-out: affinity values pKi, NL-hA3AR (converted)

Row | Compound | Kd (NL-hA3AR [1]; HEK293T cells stably expressing NL-hA3AR, read-out: affinity values pKD, NL-hA3AR (converted)) [µM] | BRET signal detected at NL-A3AR (NL-hA3AR [1]; concentrations tested 0–500 nM) | dwell time in solution (FCS, 3D diffusion model) ([2]; 100 nM in HBSS) [μs] | diffusion coefficient, D, in solution ([2]; 100 nM in HBSS, calibrated with Cy5) [μm^2/s] | PCH analysis, state in solution ([2]; 1-component fit, HBSS) | Ki (NL-hA3AR [3]) [µM]
1 | CCCCn1c(=O)c2[nH]c(C34CCC(C(=O)NCCNC(=O)CCNC(=O)c5ccc(OC(=O)CCCCC[N+]6=C(/C=C/C=C/C=C7/N(C)c8ccc(S(=O)(=O)O)cc8C7(C)C)C(C)(C)c7cc(S(=O)(=O)[O-])ccc76)c(F)c5)(CC3)CC4)nc2n(CCCC)c1=O [Compound 11, 1-(6-(4-((3-((2-(4-(1,3-Dibutyl-2,6-dioxo-2,3,6,7-tetrahydro-1H-purin-8-yl)bicyclo[2.2.2]octane-1-carboxamido)ethyl)amino)-3-oxopropyl)carbamoyl)-2-fluorophenoxy)-6-oxohexyl)-3,3-dimethyl-2-((1E,3E)-5-((E)-1,3,3-trimethyl-5-sulfoindolin-2-ylidene)penta-1,3-dien-1-yl)-3H-indol-1-ium-5-sulfonate] | > 1 | minimal BRET signal | 117.6 ± 17.6 | 142.7 ± 17.3 | single species with no aggregation | –
2 | CCCCn1c(=O)c2[nH]c(C34CCC(C(=O)NCCNC(=O)CCNC(=O)c5ccc(OC(=O)CCC(=O)NCCOCCOCCNC(=O)O[C@H]6CC/C=C/CCC6)c(F)c5)(CC3)CC4)nc2n(CCCC)c1=O [Compound 12, 4-((3-((2-(4-(1,3-Dibutyl-2,6-dioxo-2,3,6,7-tetrahydro-1H-purin-8-yl)bicyclo[2.2.2]octane-1-carboxamido)ethyl)amino)-3-oxopropyl)carbamoyl)-2-fluorophenyl (R,E)-1-(Cyclooct-4-en-1-yloxy)-1,12-dioxo-5,8-dioxa-2,11-diazapentadecan-15-oate] | – | – | – | – | – | > 10
